Drawing on patent US8338443B2, “Chemical compounds” (priority 2006, dated 2012), this text covers pest or weed control for eight compounds.

Molecules are shown by their SMILES.

One assay relates to Spodoptera littoralis. Description: Spodoptera littoralis (Egyptian cotton leafworm) cotton leaf disc spray test. The assay is classed as in vivo. The note with it: foliar, 72 h, 200 ppm spray on cotton leaf discs, L1 larvae, mortality, repellent effect, feeding behaviour, growth regulation 3 DAT. The source says:
Spodoptera littoralis (Egyptian Cotton Leafworm)
Cotton leaf discs were placed on agar in a 24-well microtiter plate and sprayed with test solutions at an application rate of 200 ppm. After drying, the leaf discs were infested with 5 L1 larvae. The samples were checked for mortality, repellent effect, feeding behaviour, and growth regulation 3 days after treatment (DAT). The following compounds gave at least 80% control of Spodoptera littoralis: I-3, II-3, II-7, V-3, XXVII-3, XXVIII-3, XXIX-3, XXXI-3.

A further assay relates to Aedes aegypti. Description: Aedes aegypti (yellow fever mosquito) larvae test. Format: in vivo. The note with it: 48 h, L2 larvae in 96-well plates, 2 days, mortality and growth inhibition. The source says:
Aedes aegypti (Yellow Fever Mosquito):
10-15 Aedes larvae (L2) together with a nutrition mixture are placed in 96-well microtiter plates. Test solutions at an application rate of 2 ppm are pipetted into the wells. 2 days later, insects were checked for mortality and growth inhibition. The following compounds gave at least 80% control of Aedes aegypti: I-3, II-3, II-7, V-3, XXVII-3, XXVIII-3, XXIX-3, XXXI-3.

For the compound `O=C(Nc1ccc2scnc2c1C1CCN(C/C=C/c2ccc(Cl)cc2)CC1)c1ccnc(Cl)c1` [II-3, 2-Chloro-N-(4-{1-[(E)-3-(4-chloro-phenyl)-allyl]-piperidin-4-yl}-benzothiazol-5-yl)-isonicotinamide], the pest or weed control – broadly, the degree to which the test organism was suppressed or injured, in per cent – at 200 ppm in the assay on Spodoptera littoralis was no less than 80%. Further, in the assay with Aedes aegypti, the pest or weed control at 2 ppm was no less than 80%.

Compound `Cc1nc2c(C3=CCN(C/C=C/c4ccc(Cl)cc4)CC3)c(NC(=O)c3ccnc(Cl)c3)ccc2s1` [XXXI-3] came in with a pest or weed control at 200 ppm with Spodoptera littoralis of no less than 80%. In the assay on Aedes aegypti, this compound showed a pest or weed control at 2 ppm of no less than 80%.

Regarding `O=C(Nc1ccc2cn[nH]c2c1C1CCN(C/C=C/c2ccc(Cl)cc2)CC1)c1ccnc(Cl)c1` [XXVII-3], in the assay with Spodoptera littoralis, the pest or weed control at 200 ppm was no less than 80%. Also, the pest or weed control at 2 ppm with Aedes aegypti was no less than 80%.

On to `O=C(Nc1ccc2nccnc2c1C1CCN(C/C=C/c2ccc(Cl)cc2)CC1)c1ccnc(Cl)c1` [XXVIII-3], for which the pest or weed control at 200 ppm in the assay with Spodoptera littoralis was no less than 80%. Further, the pest or weed control at 2 ppm with Aedes aegypti is no less than 80%.

Consider `O=C(Nc1ccc2ncsc2c1C1CCN(C/C=C/c2ccc(Cl)cc2)CC1)c1ccnc(Cl)c1` [Compound V-3], for which the pest or weed control at 200 ppm in the assay with Spodoptera littoralis was no less than 80%. Also, in the assay with Aedes aegypti, the pest or weed control at 2 ppm is no less than 80%.

`O=C(Nc1ccc2cccnc2c1C1CCN(C/C=C/c2ccc(Cl)cc2)CC1)c1ccnc(Cl)c1` [Compound I-3] returned a pest or weed control at 200 ppm with Spodoptera littoralis of no less than 80%. In the assay with Aedes aegypti, this compound returned a pest or weed control at 2 ppm of no less than 80%.

Regarding `O=C(Nc1ccc2cccnc2c1C1=CCN(C/C=C/c2ccc(Cl)cc2)CC1)c1ccnc(Cl)c1` [XXIX-3], the pest or weed control at 200 ppm in the assay on Spodoptera littoralis was no less than 80%. Moreover, in the assay on Aedes aegypti, the pest or weed control at 2 ppm was no less than 80%.

Compound `O=C(Nc1ccc2scnc2c1C1CCN(C/C=C/c2ccc(OC(F)(F)F)cc2)CC1)c1ccnc(Cl)c1` [II-7] showed a pest or weed control at 200 ppm in the assay on Spodoptera littoralis of no less than 80%. In the assay on Aedes aegypti, the pest or weed control at 2 ppm is no less than 80%.
